Experimental data reported in PubChem BioAssay AID248 (DTP/NCI, 2004).
Inconclusive results and toxic doses are left out. Rule as the data show it: active = T/C of 150% or more; inactive = T/C below 125%.

System: L1210 leukemia ip in BDF1 mice, survival T/C
Assay: NCI In Vivo Anticancer Drug Screen. Data for tumor model L1210 Leukemia (intraperitoneal) in B6D2F1 (BDF1) mice
Conditions: endpoint: mean survival time, higher = longer survival
In short: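 Transplanted-tumor mice were given test agent; controls received vehicle only. Survival readings from the two groups were divided (treated over control).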

[1] = dose: 100.0 mg/kg/injection, schedule: Q04DX003 (ip), vehicle: Klucel (hydroxypropylcellulose) (HPC)
[2] = dose: 200.0 mg/kg/injection, schedule: Q04DX003 (ip), vehicle: Klucel (hydroxypropylcellulose) (HPC)
[3] = dose: 400.0 mg/kg/injection, schedule: Q04DX003 (ip), vehicle: Klucel (hydroxypropylcellulose) (HPC)
[4] = dose: 100.0 mg/kg/injection, schedule: Q04DX003 (ip), vehicle: saline with Tween-80
[5] = dose: 200.0 mg/kg/injection, schedule: Q04DX003 (ip), vehicle: saline with Tween-80
[6] = dose: 400.0 mg/kg/injection, schedule: Q04DX003 (ip), vehicle: saline with Tween-80
[7] = dose: 100.0 mg/kg/injection, schedule: Q01DX009 (ip), vehicle: saline
[8] = dose: 100.0 mg/kg/injection, schedule: Q01DX001 (ip), vehicle: saline
[9] = dose: 100.0 mg/kg/injection, schedule: Q01DX001 (ip), vehicle: carboxymethylcellulose (CMC)
[10] = dose: 200.0 mg/kg/injection, schedule: Q01DX001 (ip), vehicle: carboxymethylcellulose (CMC)
[11] = dose: 400.0 mg/kg/injection, schedule: Q01DX001 (ip), vehicle: carboxymethylcellulose (CMC)

Measured: T/C

Oc1ccc2ccccc2c1C=Nc1ccc(Br)cc1
inactive: [1] 91 % of control | [2] 90 % of control | [3] 91 % of control

CC1=C(C)C2(C)C1(C)C1(C)NN=NC12c1ccccc1 (stereo not given)
inactive: [4] 95 % of control | [5] 91 % of control | [6] 101 % of control

CCCCCCCCOc1ccc(N(C)C(N)=S)cc1
inactive: [1] 97 % of control | [2] 101 % of control | [3] 106 % of control

CCN(CC)CCCC(C)Nc1ccc(O)c2c1C(=O)c1ccccc1C2=O (stereo not given)
inactive: dose: 25.0 mg/kg/injection, schedule: Q01DX009 (ip), vehicle: saline 100 % of control | dose: 50.0 mg/kg/injection, schedule: Q01DX009 (ip), vehicle: saline 93 % of control | [7] 104 % of control | dose: 100.0 mg/kg/injection, schedule: Q04DX002 (ip), vehicle: saline 100 % of control | dose: 200.0 mg/kg/injection, schedule: Q04DX002 (ip), vehicle: saline 102 % of control

COc1ccc2c(c1)CCC1C2CCC2(C)C(=O)OC(=O)C12 (stereo not given)
inactive: dose: 100.0 mg/kg/injection, schedule: Q01DX009 (sc), vehicle: steriod suspending solution 109 % of control | dose: 200.0 mg/kg/injection, schedule: Q01DX009 (sc), vehicle: steriod suspending solution 98 % of control | dose: 400.0 mg/kg/injection, schedule: Q01DX009 (sc), vehicle: steriod suspending solution 103 % of control

NC(N)=N/N=C(/c1ccccc1)c1ccc(F)cc1
inactive: dose: 6.25 mg/kg/injection, schedule: Q01DX009 (ip), vehicle: carboxymethylcellulose (CMC) 95 % of control | dose: 12.5 mg/kg/injection, schedule: Q01DX009 (ip), vehicle: carboxymethylcellulose (CMC) 97 % of control | dose: 15.0 mg/kg/injection, schedule: Q01DX Z (ip), vehicle: saline 95 % of control | dose: 15.0 mg/kg/injection, schedule: Q01DX Z (oral), vehicle: saline 107 % of control | dose: 20.0 mg/kg/injection, schedule: Q01DX001 (ip), vehicle: other 107 % of control | dose: 20.0 mg/kg/injection, schedule: Q01DX009 (ip), vehicle: carboxymethylcellulose (CMC) 94 % of control | dose: 20.0 mg/kg/injection, schedule: Q01DX009 (ip), vehicle: other 103 % of control | dose: 25.0 mg/kg/injection, schedule: Q01DX009 (ip), vehicle: carboxymethylcellulose (CMC) 103 % of control | dose: 30.0 mg/kg/injection, schedule: Q01DX Z (ip), vehicle: saline 108 % of control | dose: 30.0 mg/kg/injection, schedule: Q01DX Z (oral), vehicle: saline 107 % of control | dose: 40.0 mg/kg/injection, schedule: Q01DX001 (ip), vehicle: other 110 % of control | dose: 40.0 mg/kg/injection, schedule: Q01DX009 (ip), vehicle: carboxymethylcellulose (CMC) 94 % of control | dose: 40.0 mg/kg/injection, schedule: Q01DX009 (ip), vehicle: other 90 % of control | dose: 50.0 mg/kg/injection, schedule: Q01DX009 (ip), vehicle: carboxymethylcellulose (CMC) 115 % of control | dose: 80.0 mg/kg/injection, schedule: Q01DX009 (ip), vehicle: carboxymethylcellulose (CMC) 118 % of control

CC1(C)CCC(CC(=O)O)(CC(=O)O)CC1
inactive: [4] 95 % of control | [6] 92 % of control

CCN(CC)C(=S)N1CCCCC1
inactive: dose: 100.0 mg/kg/injection, schedule: Q01DX009 (ip), vehicle: Klucel (hydroxypropylcellulose) (HPC) 99 % of control | dose: 100.0 mg/kg/injection, schedule: Q04DX002 (ip), vehicle: Klucel (hydroxypropylcellulose) (HPC) 100 % of control | dose: 200.0 mg/kg/injection, schedule: Q01DX009 (ip), vehicle: Klucel (hydroxypropylcellulose) (HPC) 105 % of control | dose: 200.0 mg/kg/injection, schedule: Q04DX002 (ip), vehicle: Klucel (hydroxypropylcellulose) (HPC) 90 % of control | dose: 400.0 mg/kg/injection, schedule: Q01DX009 (ip), vehicle: Klucel (hydroxypropylcellulose) (HPC) 108 % of control | dose: 400.0 mg/kg/injection, schedule: Q04DX002 (ip), vehicle: Klucel (hydroxypropylcellulose) (HPC) 110 % of control

CCCCCC(=O)Nc1cccc(O)c1
inactive: [4] 92 % of control | [5] 98 % of control

CN1C2CC(=O)CC1C(O)C2 (stereo not given)
inactive: [8] 103 % of control | dose: 400.0 mg/kg/injection, schedule: Q01DX001 (ip), vehicle: saline 90 % of control

CC(=O)OC1(C[N+](=O)[O-])CCCCC1
inactive: dose: 50.0 mg/kg/injection, schedule: Q01DX001 (ip), vehicle: saline with Tween-80 93 % of control | dose: 100.0 mg/kg/injection, schedule: Q01DX001 (ip), vehicle: saline with Tween-80 101 % of control | dose: 200.0 mg/kg/injection, schedule: Q01DX001 (ip), vehicle: saline with Tween-80 101 % of control

ClCCN(CCCl)c1ccc(C=NCCCN=Cc2ccc(N(CCCl)CCCl)cc2Cl)c(Cl)c1
inactive: [9] 97 % of control | [10] 92 % of control | [11] 95 % of control

Oc1ccccc1/C=N/Nc1ccc2ccccc2n1
inactive: dose: 75.0 mg/kg/injection, schedule: Q01DX001 (ip), vehicle: saline with Tween-80 93 % of control | dose: 150.0 mg/kg/injection, schedule: Q01DX001 (ip), vehicle: saline with Tween-80 90 % of control | dose: 300.0 mg/kg/injection, schedule: Q01DX001 (ip), vehicle: saline with Tween-80 93 % of control

O=C(O)CCC(c1ccccc1)(c1ccccc1)c1ccccc1
inactive: [9] 95 % of control | [10] 95 % of control | [11] 101 % of control

Cc1ccc(S(=O)(=O)Nc2ccc(-c3ccc(NS(=O)(=O)c4ccc(C)cc4)cc3)cc2)cc1
inactive: dose: 50.0 mg/kg/injection, schedule: Q04DX002 (ip), vehicle: saline with Tween-80 89 % of control | dose: 100.0 mg/kg/injection, schedule: Q04DX002 (ip), vehicle: saline with Tween-80 95 % of control

O=C(O)C1C2C=CC(C2)C1C(=O)O (stereo not given)
inactive: dose: 100.0 mg/kg/injection, schedule: Q01DX009 (ip), vehicle: saline with Tween-80 97 % of control | dose: 200.0 mg/kg/injection, schedule: Q01DX009 (ip), vehicle: saline with Tween-80 96 % of control | dose: 400.0 mg/kg/injection, schedule: Q01DX009 (ip), vehicle: saline with Tween-80 98 % of control

COC(=O)C(C)CN1CC(C)OC(C)C1 (stereo not given)
inactive: [7] 95 % of control | dose: 100.0 mg/kg/injection, schedule: Q04DX003 (ip), vehicle: saline 102 % of control | dose: 200.0 mg/kg/injection, schedule: Q01DX009 (ip), vehicle: saline 97 % of control | dose: 200.0 mg/kg/injection, schedule: Q04DX003 (ip), vehicle: saline 98 % of control | dose: 400.0 mg/kg/injection, schedule: Q01DX009 (ip), vehicle: saline 95 % of control | dose: 400.0 mg/kg/injection, schedule: Q04DX003 (ip), vehicle: saline 104 % of control

CC(O)(CCc1ccccc1)CC(O)(C(F)(F)F)C(F)(F)F (stereo not given)
inactive: [4] 101 % of control | [5] 94 % of control | [6] 95 % of control

O=c1s[se]c2ccccc12
inactive: dose: 1.56 mg/kg/injection, schedule: Q01DX009 (ip), vehicle: Klucel (hydroxypropylcellulose) (HPC) 100 % of control | dose: 3.12 mg/kg/injection, schedule: Q01DX009 (ip), vehicle: Klucel (hydroxypropylcellulose) (HPC) 100 % of control | dose: 6.25 mg/kg/injection, schedule: Q01DX009 (ip), vehicle: Klucel (hydroxypropylcellulose) (HPC) 107 % of control | dose: 12.5 mg/kg/injection, schedule: Q01DX009 (ip), vehicle: Klucel (hydroxypropylcellulose) (HPC) 111 % of control | dose: 25.0 mg/kg/injection, schedule: Q01DX009 (ip), vehicle: Klucel (hydroxypropylcellulose) (HPC) 102 % of control | dose: 50.0 mg/kg/injection, schedule: Q01DX009 (ip), vehicle: Klucel (hydroxypropylcellulose) (HPC) 91 % of control

CCCC(N)C(=O)O (stereo not given)
inactive: dose: 100.0 mg/kg/injection, schedule: Q01DX001 (ip), vehicle: Klucel (hydroxypropylcellulose) (HPC) 106 % of control | dose: 200.0 mg/kg/injection, schedule: Q01DX001 (ip), vehicle: Klucel (hydroxypropylcellulose) (HPC) 103 % of control | dose: 400.0 mg/kg/injection, schedule: Q01DX001 (ip), vehicle: Klucel (hydroxypropylcellulose) (HPC) 95 % of control

Oc1ccccc1C(=NNc1ccccc1)c1ccccc1O
inactive: [9] 115 % of control | [10] 105 % of control | [11] 103 % of control

O=C(NCCF)NC1CCC(C(=O)O)CC1 (stereo not given)
inactive: dose: 50.0 mg/kg/injection, schedule: Q01DX001 (ip), vehicle: saline 111 % of control | [8] 107 % of control | dose: 200.0 mg/kg/injection, schedule: Q01DX001 (ip), vehicle: saline 96 % of control
